Test results taken from paper PMC11280390, “Synthesis of Nitrostyrylthiazolidine-2,4-dione Derivatives Displaying Antileishmanial Potential” (Pharmaceuticals, 2024).
Values after ≈ are worked out from the molar mass of the structure shown. Values joined by “and” are separate entries in the source; they are usually repeats but may differ in a detail not shown here. Identical values can stand only once. Like-named read-outs stand apart in the source and are kept apart here.

Legend:
[1] = tested on: Leishmania infantum promastigotes; experiment: In vitro antileishmanial activity on L. infantum promastigotes (MTT, 72 h); type: cell-based; conditions: Leishmania infantum, read-out: Anti-L. infantum Promastigote Activity EC50
Experimental: Luciferase-expressing Leishmania infantum was kindly provided by Professor Thierry Lang of the Institut Pasteur. L. infantum promastigotes were routinely grown at 27 °C in Schneider’s Drosophila Medium (Dominique […] SAS, Bernolsheim, France) supplemented with 10% fetal calf serum, 2% human urine, sodium pyruvate 0.04 mM, hemin 0.1 µg/mL, HEPES 5 mM, streptomycin 100 µg/mL, penicillin 100 U/mL, L-glutamine 2 mM (culture medium). The in vitro evaluation of the antileishmanial activity of the tested compound on L. infantum promastigotes forms was assessed according to the Mosmann protocol with slight modifications. […] Appropriate controls treated with DMSO, Miltefosine, Amphotericin B and Fexinidazole sulfone (reference drugs purchased from Sigma-Aldrich, Saint-Louis, MO, USA) were added to each set of experiments. The plates were incubated at 27 °C for 72 h, Then, each plate-well was microscope-analyzed to detect any precipitate formation. Afterward, 20 µL of MTT (3-(4,5-dimethylthiazol-2-yl)-2,5-diphenyltetrazolium bromide) (Sigma-Aldrich, Saint-Louis, MI, USA) solution (5 mg/mL in PBS) were added to each well and incubated at 27 °C for 4 h. The reaction was then stopped by the addition of 100 µL of 10% sodium dodecyl sulfate—50% isopropanol. Plates were shaken vigorously at 400 rpm for 10 min. […] EC50 values represent the mean value calculated from at least three separate experiments.

[2] = In vitro cytotoxicity on the human monocyte THP-1 cell line (MTT, 72 h); type: cell-based; conditions: human; THP-1, 72 h, MTT
Experimental: (§1) The undifferentiated THP1 human monocyte cells (acute monocytic leukemia cell line purchased from ATCC, ref TIB-202) were routinely grown in RPMI 1640 medium (Life Technologies, Saint-Aubin, France) supplemented with 10% FCS (Life Technologies, Saint-Aubin, France), 100 U/mL penicillin, 100 µg/mL streptomycin and 2 mM L-glutamine at 37 °C, 5% CO2. The culture was maintained between 3.10^5 and 8.10^5 cells/mL. […] Wells were washed with RPMI and 100 µL of fresh complete medium was added. […] Then, 100 µL of MTT solution (0.5 mg/mL in medium) was added to each well. Cells were incubated for 2 h at 37 °C. […] Plates were shaken vigorously (700 rpm) for 10 min. […] (Palo Alto, CA, USA).

[3] = In vitro cytotoxicity on the human hepatic HepG2 cell line (MTT, 72 h); conditions: human
Experimental: (§2) HepG2 cell line (hepatocarcinoma cell line purchased from ATCC, ref HB-8065) was maintained at 37 °C, 5% CO2 with 90% humidity in MEM supplemented with 10% fetal bovine serum, 1% L-glutamine (200 mM) and penicillin (100 U/mL)/streptomycin ([…]) (complete MEM medium). The tested molecules’ cytotoxicity was assessed according to the method of Mosmann with slight modifications. Briefly, 5 × 10^3 cells in 100 μL of complete medium were inoculated into each well of 96-well plates and incubated at 37 °C in a humidified 5% CO2. After 24 h incubation, 100 μL of medium with various product concentrations dissolved in DMSO (final concentration less than 0.5% v/v) were added and the plates were incubated for 72 h at 37 °C. Triplicate assays were performed for each sample. Each plate well was then microscope-examined to detect possible precipitate formation before the medium was aspirated from the wells. Then, 100 μL of MTT (3-(4,5-dimethyl-2-thiazolyl)-2,5-diphenyl-2H-tetrazolium bromide) solution (0.5 mg/mL in medium without FCS) were then added to each well. Cells were incubated for 2 h at 37 °C, following which the MTT solution was removed and DMSO (100 μL) was added to dissolve the resulting blue formazan crystals. Plates were shaken vigorously (700 rpm) for 10 min. The absorbance was measured at 570 nm with 630 nm as reference wavelength using a TECAN Infinite F-200 spectrophotometer (Tecan Trading AG, Männedorf, Switzerland). DMSO was used as blank and doxorubicin (purchased from Sigma Aldrich, Saint Louis, MI, USA) as positive control. Cell viability was calculated as a percentage of control (cells incubated without compound). […] CC50 values represent the mean value calculated from three separate experiments.

HepG2 cell line = experiment: as above; conditions: for Selectivity INDEX (SI = CC50/EC50): HepG2 CC50 / L. infantum promastigote EC50; for CC50: read-out: HepG2 Cytotoxicity CC50, HepG2, 72 h, MTT
Experimental: as §2

THP-1 cell line = experiment: In vitro cytotoxicity on the human monocyte THP-1 cell line (MTT, 72 h); type: cell-based; conditions: THP-1 CC50 / L. infantum promastigote EC50
Experimental: as §1

[4] = Lipophilicity by Chromatographic Hydrophobicity Index (CHI); type: physicochemical; conditions: pH 7.4, CHI; read-out: CHI logD7.4
Experimental: B: acetonitrile, at a flow rate of 0.300 mL/min and 0.5-µL injections. The validity of the CHI versus retention time was established on a reference mixture containing theophylline, phenyltetrazole, benzimidazole, acetophenone, propiophenone, butyrophenone and valerophenone.

[5] = Aqueous solubility in PBS by shake-flask method; type: physicochemical; conditions: 25 °C, pH 7.4, aqueous buffer, thermodynamic from solid, PBS pH 7.4, 25 °C
Experimental: Briefly, an excess of compound (approx. 2 mg) was stirred in PBS (0.5 mL, 0.15 M, pH 7.4) at 25 °C for 72 h. A 100 µL sample was drawn, any excess material removed by centrifugation, and diluted tenfold with methanol/water 1:1 before HPLC-UV quantification using a pre-established calibration curve (PLRP-S column (Agilent), 3 µm particle size, 100 A porosity, 50 × 2.1 mm internal dimensions). Eluent: isocratic acetonitrile/water/formic acid 80:20:0.1, 0.4 mL/min, detection at 320 nm, 2-µL injections).

[6] = tested on: wild-type L. donovani (LdBOB) promastigotes; experiment: Antileishmanial activity against wild-type L. donovani promastigotes; type: cell-based; conditions: Leishmania donovani, read-out: EC50 Values, WT
Experimental: (§3) EC50 values were determined as previously described. Nifurtimox was used as a positive control for activation via NTR1 [38] while delamanid was used as a positive control for activation via NTR2 [39].

[7] = tested on: L. donovani promastigotes overexpressing NTR1; experiment: microbe, parasite or virus in culture; type: cell-based; conditions: Leishmania donovani, read-out: EC50 Values, NTR1 OE
Experimental: as §3

[8] = tested on: L. donovani promastigotes overexpressing NTR2; experiment: microbe, parasite or virus in culture; type: cell-based; conditions: Leishmania donovani, read-out: EC50 Values, NTR2 OE
Experimental: as §3

[9] = HepG2 cells (hepatocarcinoma cell line, ATCC HB-8065), HepG2 Cytotoxicity CC50, HepG2, 72 h, MTT

SMILES | EC50 ([1]; L. infantum promastigotes, MTT) [µM] | CC50 at 72 h [2] [µM] | CC50 at 72 h [3, 9] [µM] | Selectivity INDEX (SI = CC50/EC50) (HepG2 cell line) | melting point [°C] | also measured
C[C@@H]1[C@H](O)[C@@H](C)/C=C/C=C/C=C/C=C/C=C/C=C/C=C/[C@H](O[C@@H]2O[C@H](C)[C@@H](O)[C@H](N)[C@@H]2O)C[C@@H]2O[C@](O)(C[C@@H](O)C[C@@H](O)[C@H](O)CC[C@@H](O)C[C@@H](O)CC(=O)O[C@H]1C)C[C@H](O)[C@H]2C(=O)O [Amphotericin B, reference compound] | 0.06 ± 0.02 | 17.6 ± 3 | – | – | – | –
N#CCN1C(=O)S/C(=C\c2cccc([N+](=O)[O-])c2)C1=O [Compound 14c, (Z)-2-(5-(3-Nitrobenzylidene)thiazolidine-2,4-dion-3-yl)acetonitrile] | 7 ± 2.96 | 121 ± 9 | 101 | 14 and 14.4 | 173 to 175 | CC50 (HepG2 cell line): 101 ± 19.3 µM; Selectivity index (THP-1) (THP-1 cell line): 17; chromatographic logD [4]: 2.85; solubility at 72 h ([5]; read-out: PBS Solubility (log S) (converted)): 15.8 µM (≈ 4.58 µg/mL); solubility at 72 h ([5]; read-out: PBS solubility): 16 µM (≈ 4.63 µg/mL); EC50 [6]: 22.1 µM; EC50 [7]: 3.78 ± 0.313 µM; EC50 [8]: 18.5 µM
COc1ccc(NC(=O)CN2C(=O)S/C(=C\c3ccccc3[N+](=O)[O-])C2=O)cc1 [Compound 25b, (Z)-2-(5-(2-Nitrobenzylidene)thiazolidine-2,4-dion-3-yl)-N-(4-methoxyphenyl) acetamide] | 22.3 ± 4.93 | – | 23.3 ± 2.93 | 1.1 | 204 to 205 | –
O=C(CN1C(=O)S/C(=C\c2ccccc2[N+](=O)[O-])C1=O)Nc1ccc([N+](=O)[O-])cc1 [Compound 26b, (Z)-2-(5-(2-Nitrobenzylidene)thiazolidine-2,4-dion-3-yl)-N-(4-nitroyphenyl) acetamide] | – | – | – | 2.1 | 213 to 215 | EC50 [1]: 14.6 ± 2.91 µM; CC50 at 72 h [3]: 30.1 ± 3.94 µM
O=C(CN1C(=O)S/C(=C\c2cccc([N+](=O)[O-])c2)C1=O)Nc1ccc([N+](=O)[O-])cc1 [Compound 26c, (Z)-2-(5-(3-Nitrobenzylidene)thiazolidine-2,4-dion-3-yl)-N-(4-nitroyphenyl) acetamide] | – | – | – | >3.5 | 264 to 266 | EC50 [1]: 7.2 ± 1.48 µM; CC50 at 72 h [3]: > 25 µM
O=C(CN1C(=O)S/C(=C\c2ccc([N+](=O)[O-])cc2)C1=O)Nc1ccc([N+](=O)[O-])cc1 [Compound 26d, (Z)-2-(5-(4-Nitrobenzylidene)thiazolidine-2,4-dion-3-yl)-N-(4-nitroyphenyl) acetamide] | – | – | – | >1.8 | 284 to 285 | EC50 [1]: 14.1 ± 2.8 µM; CC50 at 72 h [3]: > 25 µM
O=C(CN1C(=O)S/C(=C\c2ccccc2[N+](=O)[O-])C1=O)Nc1ccc(Cl)cc1 [Compound 27b, (Z)-N-(4-Chlorophenyl)-2-(5-(2-nitrobenzylidene)thiazolidine-2,4-dion-3-yl) acetamide] | 16.3 ± 3.85 | – | 34.6 ± 3.03 | 2.1 | 188 to 190 | –
O=C(CN1C(=O)S/C(=C\c2ccc([N+](=O)[O-])cc2)C1=O)Nc1ccc(Cl)cc1 [Compound 27d, (Z)-N-(4-Chlorophenyl)-2-(5-(4-nitrobenzylidene)thiazolidine-2,4-dion-3-yl) acetamide] | 17.3 ± 4.17 | – | > 12.5 | >0.7 | 252 to 254 | –
COc1cc(/C=C2\SC(=O)N(CC(=O)Nc3ccc(Cl)cc3)C2=O)cc(OC)c1OC [Compound 27e, (Z)-N-(4-Chlorophenyl)-2-(5-(3,4,5-trimethoxybenzylidene)thiazolidine-2,4-dion-3-yl)acetamide] | 5 ± 1.98 | – | 19.4 ± 2.05 | 3.9 | 218 to 219 | –
O=C(CN1C(=O)S/C(=C\c2ccccc2[N+](=O)[O-])C1=O)Nc1ccccc1Cl [Compound 28b, (Z)-N-(2-Chlorophenyl)-2-(5-(2-nitrobenzylidene)thiazolidine-2,4-dion-3-yl) acetamide] | 16.1 ± 4.32 | – | 23 ± 3.2 | 1.4 | 174 to 175 | –
C[C@]1(COc2ccc(N3CCC(Oc4ccc(OC(F)(F)F)cc4)CC3)cc2)Cn2cc([N+](=O)[O-])nc2O1 [Delamanid] | – | – | – | – | – | EC50 [6]: 0.003 ± 0.0001 µM; EC50 [7]: 0.002 ± 0.0003 µM; EC50 [8]: 0.0003 ± 1e-06 µM
COc1cccc2c1C(=O)c1c(O)c3c(c(O)c1C2=O)C[C@@](O)(C(=O)CO)C[C@@H]3O[C@H]1C[C@H](N)[C@H](O)[C@H](C)O1 [Doxorubicin, reference compound] | – | 2.2 ± 0.1 | – | – | – | CC50 (HepG2 cell line): 0.2 ± 0.02 µM
Cn1c([N+](=O)[O-])cnc1COc1ccc(S(C)(=O)=O)cc1 [Fexinidazole sulfone, reference compound] | 3.1 ± 0.7 | > 200 | > 200 | >64.5 | – | –
CCCCCCCCCCCCCCCCOP(=O)([O-])OCC[N+](C)(C)C [Miltefosine, reference compound] | 3.3 ± 0.8 | 30 ± 4 | – | – | – | –
CC1CS(=O)(=O)CCN1/N=C/c1ccc([N+](=O)[O-])o1 (stereo not shown) [Nifurtimox] | – | – | – | – | – | EC50 [6]: 3.11 ± 0.223 µM; EC50 [7]: 0.144 ± 0.01 µM; EC50 [8]: 0.163 ± 0.011 µM
